Data as given in patent US20100227853A1, “INHIBITORS OF CYCLIC AMP PHOSPHODIESTERASES” (Trustees of Boston College, priority 2008, published 2010).

target: T1, PDE4A1 (Mus musculus, UniProt O89084); experiment: 5FOA growth assay (high throughput screen, ED50) in fission yeast strain expressing PDE4A1; format: cell-based; settings: 2 uM
T1 construct: targets used in the assays are full-length proteins (as opposed to simply the catalytic domain); expressed in transfected cells; host or cells: Schizosaccharomyces pombe, PDE gene integrated in place of cgs2
T1 sequence (O89084 1-610 isoform O89084-2): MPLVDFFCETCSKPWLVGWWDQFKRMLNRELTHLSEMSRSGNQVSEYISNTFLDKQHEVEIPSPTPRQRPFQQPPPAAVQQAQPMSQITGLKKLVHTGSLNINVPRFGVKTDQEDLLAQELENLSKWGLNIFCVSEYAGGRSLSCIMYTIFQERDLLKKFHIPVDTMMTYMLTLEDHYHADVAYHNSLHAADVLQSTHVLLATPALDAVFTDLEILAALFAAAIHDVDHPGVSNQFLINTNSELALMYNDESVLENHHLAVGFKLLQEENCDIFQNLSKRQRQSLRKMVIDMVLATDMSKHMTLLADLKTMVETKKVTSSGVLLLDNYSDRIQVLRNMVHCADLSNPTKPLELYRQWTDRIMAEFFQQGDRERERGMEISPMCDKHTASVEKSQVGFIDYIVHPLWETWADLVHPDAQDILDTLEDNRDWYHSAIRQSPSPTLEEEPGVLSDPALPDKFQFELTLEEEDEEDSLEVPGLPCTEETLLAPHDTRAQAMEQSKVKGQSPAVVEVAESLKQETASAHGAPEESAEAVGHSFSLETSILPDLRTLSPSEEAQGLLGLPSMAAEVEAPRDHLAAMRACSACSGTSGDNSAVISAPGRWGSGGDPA
Summary of the method: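 Readout is OD600 after 48 h at 30° C in 5FOA medium, starting from 0.5–4×10^5 cells/ml; 5 mM cAMP served as positive control. Yeast expressing mouse PDE4A1 or PDE4B3 with an fbp1-ura4 reporter was first grown to exponential phase in EMM plus 0.5–2.5 mM cAMP. Hits were scored by composite Z scores.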

Compound | 2 Assay (2 uM), 4A1
COC(=O)C1=C(C)N(C2CCCCC2)C(=O)/C1=C\c1cccs1 [Compound 22] | 27.01
COC(=O)C1=C(C)N(c2ccccc2Cl)C(=O)/C1=C\c1cccs1 [Compound 27] | 17.41
N#Cc1sc2sc(C#N)c(-c3ccco3)c2c1N [Compound 30] | 4.56

same assay, conditions: 2 uM; PDE 4A1

Compound | 2 Assay (2 uM), 4A1
COc1ccc2c(c1)[C@@]1(C)CCC[C@](C)(CO)C1CC2 (stereo partly drawn) [Compound 2067M03] | 6.63
Cc1ccc2c(c1)CCC1CC(=O)CC[C@]21C (stereo partly drawn) [Compound 2158J12] | 2.18

same assay, conditions: 20 uM; PDE 4A1

Compound | 1 Assay (20 uM) 4A1
CCCCn1c2ccccc2c2nc3ccccc3nc21 [2013, I20] | 80.55 ND ND ND ND
CC(C)Cn1c2ccc(Br)cc2c2nc3ccccc3nc21 [2015, L04] | 13.51 ND ND ND ND
CCc1ccc2c(c1)c1nc3ccccc3nc1n2CC [2015, P06] | 23.52 ND ND ND ND
C=CCn1c2ccc(Br)cc2c2nc3ccccc3nc21 [2017, C18] | 49.17 ND ND ND ND
c1ccc(CCn2c3ccccc3c3nc4ccccc4nc32)cc1 [2019, G03] | 36.37 ND ND ND ND
C=Cn1c2ccccc2c2nc3ccccc3nc21 [2033, H06] | 29.62 ND ND ND ND
Cc1ccc2c(c1)c1nc3ccccc3nc1n2C(C)C [Compound 41] | 106.90
COc1ccc2c(c1)[C@@]1(C)CCC[C@](C)(CO)C1CC2 (stereo partly drawn) [Compound 2067M03] | 11567
Cc1ccc2c(c1)CCC1CC(=O)CC[C@]21C (stereo partly drawn) [Compound 2158J12] | 81.97

same assay, conditions: high throughput 5FOA growth screen; greater than 8.53 = statistically-significant inhibitor

Compound | Composite Z score, PDE4A1
COc1ccccc1CNC(=O)c1sc2ncnc(N3CCN(c4ccccc4F)CC3)c2c1C [2041 E21] | 1.9156
CNc1nc(=S)[nH]c2sc3c(c12)CCCC3 [2054 E08] | −1.088
CC1CC(=O)N(c2ncnc3sc4c(c23)CCCC4)N1 (stereo not drawn) [2054 E16] | 0.2389
CCC1CCc2c(sc3ncnc(N4CCOCC4)c23)C1 (stereo not drawn) [BC33] | 50.594
CCN(CC)c1ncnc2sc3c(c12)CCCC3 [BC44] | 22.267
Cc1c(C(=O)Nc2ccc(F)cc2F)sc2ncnc(N3CCC(C)CC3)c12 [BC58] | 34.335
Cc1sc2ncnc(Nc3ccccc3)c2c1C [BC64] | 24.925
Cc1c(C(=O)Nc2ccc(F)cc2F)sc2ncnc(N(C)c3ccccc3)c12 [Compound 58-9] | 25.972
c1csc(CCNc2ncnc3sc4c(c23)CCC4)c1 [Compound 2005M12] | −1.628
CCOC(=O)c1sc2nc(C)nc(N3CCC(C)CC3)c2c1C [Compound 2007D06] | −0.396
CCCCN(CC)C(=O)c1sc2ncnc(N3CCN(c4ccc(OC)cc4)CC3)c2c1C [Compound 2007H06] | 0.0978
CCOC(=O)c1sc2nc(C)nc(N(C)Cc3ccccc3)c2c1C [Compound 2007L04] | 0.6949
Cc1nc(NCCc2ccccc2)c2c3c(sc2n1)CCCC3 [Compound 2008G09] | 0.1429
O=C(/C=C/c1ccccc1)Nc1ncnc2sc3c(c12)CCC3 [Compound 2008K11] | −1.395
COc1ccc(CCNc2ncnc3sc4c(c23)CCCC4)cc1 [Compound 2012B19] | 32.257
O=C(Nc1ncnc2sc3c(c12)CCCCC3)c1ccc(F)cc1 [Compound 2012F09] | 34.225
CC(C)CC(Nc1ncnc2sc3c(c12)CCC3)C(=O)O (stereo not drawn) [Compound 2012H20] | 0.407
Cc1cc(C)c(C)c(S(=O)(=O)N2CCN(c3ncnc4sc5c(c34)CCCC5)CC2)c1C [Compound 2012L13] | 1.67
O=C(O)CCNc1ncnc2sc3c(c12)CCCC3 [Compound 2012O16] | 2.8
CCOC(CNc1nc(C)nc2sc3c(c12)CCCC3)OCC [Compound 2040D04] | 3.1355

Compound | Composite Z score, PDE4A1
CCOC(=O)c1sc2nc(Cc3ccccc3)nc(NCCC3CCCCC3)c2c1C [Compound 2040F07] | 3.8961
Cc1nc(N2CCCCC2)c2c(C)c(C(=O)Nc3cccc(C(F)(F)F)c3)sc2n1 [Compound 2040F10] | 11.225
Cc1c(C(=O)NCCC(C)C)sc2ncnc(N3CCOCC3)c12 [Compound 2040F13] | 3.5005
Cc1c(C(=O)NCCC2CCCCC2)sc2ncnc(N3CCCCC3C)c12 (stereo not drawn) [Compound 2040H10] | 14.925
COc1cc(OC)c(NC(=O)c2sc3ncnc(N4CCCCC4C)c3c2C)cc1Cl (stereo not drawn) [Compound 2040J10] | 3.0133
CCN(CC)c1ncnc2sc(C(=O)N(C)C3CCCCC3)c(C)c12 [Compound 2040J12] | 7.0857
CCN(CC)c1nc(C)nc2sc(C(=O)Nc3cc(Cl)ccc3OC)c(C)c12 [Compound 2040L12] | 8.6742
Cc1nc(N2CCC(C)CC2)c2c(C)c(C(=O)N3CCN(c4ccc(F)cc4)CC3)sc2n1 [Compound 2040N10] | 12.024
CCN(CC)c1nc(C)nc2sc(C(=O)N3CCCCCC3)c(C)c12 [Compound 2040N12] | 7.3705
CCOC(=O)c1ccccc1NC(=O)c1sc2nc(C)nc(N(CC)CC)c2c1C [Compound 2040P12] | 12.157
Cc1c(C(=O)N(C)Cc2ccccc2)sc2ncnc(N3CCN(c4ccccc4)CC3)c12 [Compound 2041G21] | −0.629
COc1ccc(NC(=O)c2sc3nc(C)nc(N(C)c4ccc(C(C)C)cc4)c3c2C)c(OC)c1 [Compound 2041I04] | 5.2983
Cc1c(C(=O)N2CCCCCC2)sc2ncnc(N3CCN(c4ccccc4)CC3)c12 [Compound 2041I21] | 0.2744
CCC(C)NC(=O)c1sc2nc(C)nc(N(C)c3ccc(C(C)C)cc3)c2c1C (stereo not drawn) [Compound 2041K04] | 11.659
COc1cccc(NC(=O)c2sc3ncnc(N4CCc5ccccc5C4)c3c2C)c1 [Compound 2041K21] | 19.619
OCCNc1ncnc2sc3c(c12)CCCC3 [Compound 2051H22] | 2.4965
c1nc(NCCCN2CCOCC2)c2c3c(sc2n1)CCCC3 [Compound 2051N22] | 1.1862
CCNc1nc(SCC(=O)OCC)nc2sc3c(c12)CCC(C)C3 (stereo not drawn) [Compound 2053H16] | 3.7863
CCNc1nc(SCC(=O)NC(=O)NCc2ccccc2)nc2sc3c(c12)CCN(C)C3 [Compound 2054N05] | −0.307
CCNc1nc(SCc2ccc(Cl)cc2)nc2sc3c(c12)CCN(C)C3 [Compound 2054P05] | 2.3863

same assay, conditions: value marked (m); OD600 0.6; read-out: ED50 for 5FOA growth assays, PDE4A1 (m)

Compound | EC50 [µM]
CCC1CCc2c(sc3ncnc(N4CCOCC4)c23)C1 (stereo not drawn) [BC33] | 23
Cc1sc2ncnc(Nc3ccccc3)c2c1C [BC64] | 20

same assay, conditions: value marked (r); OD600 0.6; read-out: ED50 for 5FOA growth assays, PDE4A1 (r)

Compound | EC50 [µM]
CCC1CCc2c(sc3ncnc(N4CCOCC4)c23)C1 (stereo not drawn) [BC33] | 28
